{"source": "patent EP0831877B1", "about": "“METABOLIC EFFECTS OF CERTAIN GLUTATHIONE ANALOGS” (TELIK, INC., priority 1995, dated 1996)", "key": {"[1]": {"system": "HT4-1, a subclone of HT-29", "test": "standard clonogenic assay, potentiation of drug toxicity, HT4-1", "experimental": "Four chemotherapeutic drugs, chlorambucil, adriamycin, mitomycin C and doxorubicin were used as the toxic agents. In these assays, the cells were seeded at 300 cells/well in 2 ml of medium in 6-well plates in the presence of the compounds used in the invention as the diethyl esters. […] After incubation for 1-2 hours to permit cells to attach, varying doses of the chemotherapeutic agents were added. At least three replicate wells were plated for each test condition and the plates were incubated for two weeks. […] IC50 values were determined for the chemotherapeutic agent in the presence or absence of the compound used in the invention and dose modification factors were calculated by dividing the IC50 value of drug without the compound by the IC50 value of the drug with the compound."}, "Human GST P1-1": {"target": "Human GST P1-1 (Homo sapiens, UniProt P09211)", "sequence (P09211 2-210 limits assumed)": "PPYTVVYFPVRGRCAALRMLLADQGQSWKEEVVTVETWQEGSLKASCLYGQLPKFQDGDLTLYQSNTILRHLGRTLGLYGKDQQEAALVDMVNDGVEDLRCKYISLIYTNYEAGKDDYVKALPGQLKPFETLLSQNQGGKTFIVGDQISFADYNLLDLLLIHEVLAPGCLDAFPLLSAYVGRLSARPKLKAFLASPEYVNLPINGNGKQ", "test": "inhibition of GST isoenzyme P1-1 (Ki)", "assay_type": "biochemical"}, "bone marrow GM-CFU": {"system": "bone marrow GM-CFU", "test": "stimulation of bone marrow GM-CFU after administration to mice", "assay_type": "in vivo, B6D2F1 mice", "details": "bone marrow harvested 24 hours after administering", "description": "In an illustrative assay three B6D2F1 mice were treated with various doses of benzyl PG intraperitoneally.\nMice in the control group were injected with water or saline. Bone marrow cells were harvested 24 hours after drug treatment and added to alpha minimum essential medium (alpha MEM) supplemented with methylcellulose (0.8% w/v), fetal bovine serum (20% v/v), deionized BSA (1% w/v), Pokeweed mitogen-stimulated spleen-cell conditioned medium (PWM-SCCM)^1 (10% v/v) and gentamycin (50 Tg/ml). One ml aliquots were plated (four replicate plates) and incubated for seven days at 37 °C. […] Spleens were removed aseptically from four male B6D2F1 mice enforced through a 200 Tm wire mesh screen to obtain a single cell suspension. Ten ml of the suspension (2-4 X 10^7 cell/ml was added to 90 ml alpha-MEM supplemented with 1% deionized BSA, 50 Tg/ml gentamicin, 0.3% freshly reconstituted pokeweed antigen, 10 µM 2-mercaptoethanol. The mixture was incubated for 5 days at […] in a 5% CO2 atmosphere and the result-ing conditioned medium was centrifuged at 800g for ten minutes and filtered through a 0.22 Tm filter. Aliquots were kept frozen at […] until use.\nBone marrow was harvested 24 hours after administering the compounds and GM-CFU levels measured as described above."}, "[2]": {"system": "HT-29 (human colon adenocarcinoma) cells", "test": "modified clonogenic assay, potentiation of chlorambucil cytotoxicity", "assay_type": "cell-based", "details": "for DMF of DEE: diethyl ester", "description": "HT-29 (human colon adenocarcinoma) cells were obtained from Dr. Roberto Ceriani (Cancer Research Fund of Contra Costa County, Walnut Creek, CA) and were used in log phase of growth unless otherwise specified. Chlorambucil (CMB) was obtained from Sigma (St. Louis, MO) and was dissolved in 100% ethanol. All GST inhibitors were dissolved in ethanol, DMSO, or water just prior to use. The same amount of solvent added to culture medium served as the vehicle control.\nIn a modified clonogenic assay for cytotoxicity, cells were suspended at 2 x 10^5 cells/ml in serum-free medium in the presence of vehicle or inhibitor. […] Cells were incubated for 2 hours, then varying doses of CMB were added. At the end of a second 2-hour incubation, cells were diluted to 7.5-10 x 10^3/ml in serum-containing medium and plated in quadruplicate at 200 µl/well in Microtest III microtiter plates.\nPlates were incubated for 6 days and assayed by a modified methylene blue method. Briefly, cells were fixed with 1.25% glutaraldehyde in PBS then stained with 0.05% methylene blue in distilled water. Plates were washed several times in distilled water to remove unretained dye and retained dye was resolubilized in 0.03 N HCl. Plates were read at 650 nm in a Molecular Devices Vmax plate reader (Molecular Devices, Redwood City, CA). […] A dose modification factor (DMF), a measure of potentiation of cytotoxicity, was calculated for each inhibitor by dividing the IC50 value of CMB without inhibitor treatment by the IC50 value for CMB with inhibitor treatment."}, "GST M1a-1a": {"target": "T1, GST M1a-1a (Homo sapiens, UniProt P09488)", "T1 sequence (P09488 1-218)": "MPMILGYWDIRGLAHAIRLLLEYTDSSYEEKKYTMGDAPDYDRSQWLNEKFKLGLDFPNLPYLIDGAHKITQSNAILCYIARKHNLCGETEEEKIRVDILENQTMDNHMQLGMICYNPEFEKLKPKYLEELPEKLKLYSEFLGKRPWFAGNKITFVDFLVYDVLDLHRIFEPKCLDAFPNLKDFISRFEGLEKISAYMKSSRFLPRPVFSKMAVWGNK", "test": "inhibition of GST isoenzyme M1a-1a (Ki)", "assay_type": "biochemical"}, "GST M2-2": {"target": "T2, GST M2-2 (Homo sapiens, UniProt P28161)", "T2 sequence (P28161 1-218)": "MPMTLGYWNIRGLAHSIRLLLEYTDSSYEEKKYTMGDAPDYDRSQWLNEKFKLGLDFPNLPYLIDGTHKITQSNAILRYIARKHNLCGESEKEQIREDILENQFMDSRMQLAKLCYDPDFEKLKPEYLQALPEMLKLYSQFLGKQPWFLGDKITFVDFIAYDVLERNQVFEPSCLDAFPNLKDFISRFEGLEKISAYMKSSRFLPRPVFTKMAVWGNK", "test": "inhibition of GST isoenzyme M2-2 (Ki)", "assay_type": "biochemical", "details": "determined on unesterified form"}, "GST A1-1": {"target": "T3, GST A1-1 (Homo sapiens, UniProt P08263)", "T3 sequence (P08263 1-222)": "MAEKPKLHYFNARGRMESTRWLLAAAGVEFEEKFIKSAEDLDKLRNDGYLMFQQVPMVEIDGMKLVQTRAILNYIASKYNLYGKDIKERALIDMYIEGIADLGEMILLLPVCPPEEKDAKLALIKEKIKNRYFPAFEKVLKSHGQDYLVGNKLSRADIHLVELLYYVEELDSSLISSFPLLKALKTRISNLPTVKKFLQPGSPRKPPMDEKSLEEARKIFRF", "test": "inhibition of GST isoenzyme A1-1 (Ki)", "assay_type": "biochemical"}, "[3]": {"system": "SKOV-3 an ovarian carcinoma", "test": "standard clonogenic assay, potentiation of drug toxicity, SKOV-3", "assay_type": "cell-based", "description": "(§1) ; SKOV-3 an ovarian carcinoma, and VLB, a vinblastine-resistant variant of SKOV-3. Four chemotherapeutic drugs, chlorambucil, adriamycin, mitomycin C and doxorubicin were used as the toxic agents. In these assays, the cells were seeded at 300 cells/well in 2 ml of medium in 6-well plates in the presence of the compounds used in the invention as the diethyl esters. […]. After incubation for 1-2 hours to permit cells to attach, varying doses of the chemotherapeutic agents were added. At least three replicate wells were plated for each test condition and the plates were incubated for two weeks. Colonies were fixed in 95% ethanol and stained with crystal violet for colony counting. IC50 values were determined for the chemotherapeutic agent in the presence or absence of the compound used in the invention and dose modification factors were calculated by dividing the IC50 value of drug without the compound by the IC50 value of the drug with the compound."}, "[4]": {"system": "VLB, a vinblastine-resistant variant of SKOV-3", "test": "standard clonogenic assay, potentiation of drug toxicity, VLB", "assay_type": "cell-based", "description": "as §1"}, "[5]": {"test": "in vitro half-life / metabolism in mouse blood", "assay_type": "in vitro ADME"}, "[6]": {"test": "in vitro half-life in human blood", "assay_type": "in vitro ADME"}, "[7]": {"details": "determined on unesterified form"}, "[8]": {"details": "HT4-1, TER199 at 25 µM, TER183 dose not given"}, "[9]": {"details": "chlorambucil, mean ±S.D. of 2-3 experiments"}}, "note": "Where “and” joins values, the source holds several entries; their conditions need not be identical. Identical values can stand only once. Like-named read-outs stand apart in the source and are kept apart here. Marks after values point to notes of the source that are not given here. *1 amine or outer side, *2 acyl side, *3 side chain or, on linkers, in order; H or OH if unused. Where a SMILES comes first, the peptide text is derived from it. [ ]: non-standard residue; d: D form. The star is where a group is joined. γGlu = O=C(O)[C@H](CCC(=O)[*:2])N[*:1]; dPhg = N[C@@H](C(=O)O)c1ccccc1; Bn = c1ccc(C*)cc1"}
{"compound": "N[C@@H](CCC(=O)N[C@@H](CSCc1ccccc1)C(=O)N[C@@H](C(=O)O)c1ccccc1)C(=O)O", "note": "[TER117, γE-C(Bz)-ϕG] (γGlu-Cys(Bn)-[dPhg]-OH)", "values": [{"measurement": "survival of HT4-1 cells in the presence of the compound alone (Figure 1b)", "setting": "[1]; HT4-1 cells", "result": "substantially no effect"}, {"measurement": "Ki", "setting": "Human GST P1-1; [7]", "result": 0.4, "unit": "µM"}, {"measurement": "effect on GM-CFU as a function of dosage, ester/amide forms (Figure 7)", "setting": "bone marrow GM-CFU", "result": "not effective"}, {"measurement": "DMF (dose modification factor), Parent Compound", "setting": "[2]; chlorambucil, HT-29, dose tested 100 µM, mean ±S.D. of 2-3 experiments", "result": "1.08 and 1.08±0.01"}, {"measurement": "Ki", "setting": "GST M1a-1a; [7]", "result": 25, "unit": "µM"}, {"measurement": "Ki", "setting": "GST M2-2", "result": 31, "unit": "µM"}, {"measurement": "Ki", "setting": "GST A1-1; [7]", "result": 20, "unit": "µM"}]}
{"compound": "CCCCCCCCSC[C@H](NC(=O)CC[C@H](N)C(=O)OCC)C(=O)NCC(=O)OCC", "note": "[TER183, γE-C(octyl)-G diethyl ester]", "values": [{"measurement": "DMF for Adriamycin", "setting": "[1]; [8]", "result": 1.13}, {"measurement": "DMF for Chlorambucil", "setting": "[1]; [8]", "result": 1.74}, {"measurement": "DMF for Mitomycin C", "setting": "[1]; [8]", "result": 1.56}, {"measurement": "DMF for Adriamycin", "setting": "[3]; analog @5 uM", "result": "1.24 (@5 uM)^c"}, {"measurement": "DMF for Chlorambucil", "setting": "[3]; test dose not given", "result": 1.03}, {"measurement": "DMF for Adriamycin", "setting": "[4]; TER199 at 25 µM, TER183 dose not given", "result": 1.06}, {"measurement": "DMF for Mitomycin C", "setting": "[4]; test dose not given", "result": 1.63}, {"measurement": "DMF (dose modification factor), Diethyl ester", "setting": "[2]; chlorambucil, HT-29, dose tested 5 µM, mean ±S.D. of 2-3 experiments", "result": "0.86±0.02"}, {"measurement": "DMF of DEE", "setting": "[2]; [9]", "result": 0.864}]}
{"compound": "CCNC(=O)C(N)CCC(=O)NC(CSCc1ccccc1)C(=O)N[C@@H](C(=O)NCC)c1ccccc1", "note": "(stereo partly drawn) [TER278, γE ethyl amide-C(Bz)-R-(-)-ϕG ethyl amide]", "values": [{"measurement": "half-life compared with TER199", "setting": "[5]", "result": "longer half-lives than TER199"}, {"measurement": "half-life, comparison of the three compounds", "setting": "[6]", "result": "approximately the same"}, {"measurement": "DMF for chlorambucil toxicity", "setting": "[2]; HT-29, 200 µM, single experiment", "result": 1.0}, {"measurement": "ability to potentiate chlorambucil compared with TER199", "setting": "[2]; test system not stated", "result": "less able to potentiate chlorambucil"}, {"measurement": "toxicity compared with TER199", "setting": "[2]; test system not stated", "result": "less toxic"}]}
{"compound": "CCCCCCSC[C@H](NC(=O)CC[C@H](N)C(=O)OCC)C(=O)NC(C(=O)OCC)c1ccccc1", "note": "(stereo partly shown) [γE-C(Hx)-ϕG diethyl ester, γE-C(Hx)-ϕG]", "values": [{"measurement": "DMF (dose modification factor), Diethyl ester", "setting": "[2]; chlorambucil, HT-29, dose tested 12.5 µM, mean ±S.D. of 2-3 experiments", "result": "1.27±0.02"}, {"measurement": "DMF of DEE", "setting": "[2]; [9]", "result": 1.272}]}
{"compound": "CCCCCCCCSC[C@H](NC(=O)CC[C@H](N)C(=O)OCC)C(=O)NCC(=O)OCC", "note": "[TER143, γE-C(octyl)-G]", "values": [{"measurement": "Ki", "setting": "Human GST P1-1", "result": 1.9, "unit": "µM"}, {"measurement": "Ki", "setting": "GST M1a-1a", "result": 1.2, "unit": "µM"}, {"measurement": "Ki", "setting": "GST A1-1", "result": 0.27, "unit": "µM"}]}
{"compound": "γE-C(Bz) (S+)-fA [TER317]", "values": [{"measurement": "Ki", "setting": "Human GST P1-1; [7]", "result": "> 1000", "unit": "µM"}, {"measurement": "effect on GM-CFU, analogs of TER199 (Figure 8)", "setting": "bone marrow GM-CFU", "result": "inactive"}, {"measurement": "Ki", "setting": "GST M1a-1a; [7]", "result": "> 1000", "unit": "µM"}, {"measurement": "Ki", "setting": "GST M2-2", "result": "> 1000", "unit": "µM"}, {"measurement": "Ki", "setting": "GST A1-1; [7]", "result": "> 1000", "unit": "µM"}]}
